# Measured values reported in ChEMBL document CHEMBL1201862, “PubChem BioAssay data set” (2004).
#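 Exposure lasted 48 hours, with cells grown in 96-well plates and compounds tested at five concentrations. Abbreviation: GI50, concentration required for 50% inhibition of growth.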 Calls of active or inactive are those of the source. No stated cut-off is given here; in the data, active = GI50 up to about 1.1 µM and inactive = higher.
# Experiments:
# Test in all cases: NCI anticancer screen, dose series, 48 h
# RXF 393 = test system: RXF 393
# MCF7 = test system: MCF7
# SF-268 = test system: SF-268
# UACC-62 = test system: UACC-62
# UACC-257 = test system: UACC-257
# SK-MEL-5 = test system: SK-MEL-5
# SNB-19 = test system: SNB-19
# OVCAR-3 = test system: OVCAR-3
# BT-549 = test system: BT-549
# HCT-15 = test system: HCT-15
# COLO 205 = test system: COLO 205
# HCT-116 = test system: HCT-116
# OVCAR-5 = test system: OVCAR-5
# SF-539 = test system: SF-539
# M14 = test system: M14
# CCRF-CEM = test system: CCRF-CEM
# IGROV-1 = test system: IGROV-1
# OVCAR-4 = test system: OVCAR-4
# Hs-578T = test system: Hs-578T
# SK-OV-3 = test system: SK-OV-3
# OVCAR-8 = test system: OVCAR-8
# TK-10 = test system: TK-10
# HOP-62 = test system: HOP-62
# MOLT-4 = test system: MOLT-4
# U-251 = test system: U-251
# SN12C = test system: SN12C
# SK-MEL-2 = test system: SK-MEL-2
# ACHN = test system: ACHN
# SF-295 = test system: SF-295
# MDA-MB-231 = test system: MDA-MB-231
# HL-60 = test system: HL-60
# MDA-N = test system: MDA-N
# DU-145 = test system: DU-145
# NCI-H522 = test system: NCI-H522
# NCI-H226 = test system: NCI-H226
# PC-3 = test system: PC-3
# SK-MEL-28 = test system: SK-MEL-28
# MDA-MB-435 = test system: MDA-MB-435
# SR = test system: SR
# T47D = test system: T47D
# HOP-92 = test system: HOP-92
# A549 = test system: A549
# NCI-H460 = test system: NCI-H460
# RPMI-8226 = test system: RPMI-8226
# UO-31 = test system: UO-31
# KM12 = test system: KM12
# HT-29 = test system: HT-29
# K562 = test system: K562
# A498 = test system: A498
# SNB-75 = test system: SNB-75
# CAKI-1 = test system: CAKI-1
# SW-620 = test system: SW-620
# NCI-H23 = test system: NCI-H23
# NCI/ADR-RES = test system: NCI/ADR-RES
# 786-0 = test system: 786-0
# EKVX = test system: EKVX
# Malme-3M = test system: Malme-3M
# HCC 2998 = test system: HCC 2998
# LOX IMVI = test system: LOX IMVI
# DMS-273 = test system: DMS-273
# M19-MEL = test system: M19-MEL
# SNB-78 = test system: SNB-78
# DMS-114 = test system: DMS-114
# KM-20L2 = test system: KM-20L2
# DLD-1 = test system: DLD-1
compound,measurement,setting,value
COc1ccc(/C=N/c2nc3cc4sc(/N=C/c5ccc(OC)cc5)nc4cc3s2)cc1,GI50,RXF 393,> 57.9 µM (inactive)
same,GI50,MCF7,11.6 µM (inactive)
same,GI50,SF-268,56.8 µM (inactive)
same,GI50,UACC-62,27.3 µM (inactive)
same,GI50,UACC-257,70.6 µM (inactive)
same,GI50,SK-MEL-5,13.6 µM (inactive)
same,GI50,SNB-19,> 100 µM (inactive)
same,GI50,OVCAR-3,23.6 µM (inactive)
same,GI50,BT-549,27.3 µM (inactive)
same,GI50,HCT-15,19.5 µM
same,GI50,COLO 205,3.66 µM (inactive)
same,GI50,HCT-116,18.4 µM (inactive)
same,GI50,OVCAR-5,> 81.5 µM (inactive)
same,GI50,SF-539,> 100 µM (inactive)
same,GI50,M14,58.2 µM (inactive)
same,GI50,CCRF-CEM,4.2 µM (inactive)
same,GI50,IGROV-1,57.4 µM (inactive)
same,GI50,OVCAR-4,57.4 µM (inactive)
same,GI50,Hs-578T,> 32.7 µM (inactive)
same,GI50,SK-OV-3,49.7 µM (inactive)
same,GI50,OVCAR-8,> 60.5 µM (inactive)
same,GI50,TK-10,30.9 µM (inactive)
same,GI50,HOP-62,> 49.2 µM (inactive)
same,GI50,MOLT-4,8.15 µM (inactive)
same,GI50,U-251,54.3 µM (inactive)
same,GI50,SN12C,32.7 µM (inactive)
same,GI50,SK-MEL-2,> 100 µM (inactive)
same,GI50,ACHN,43.7 µM (inactive)
same,GI50,SF-295,43.6 µM (inactive)
same,GI50,MDA-MB-231,98.6 µM (inactive)
same,GI50,HL-60,18.4 µM (inactive)
same,GI50,MDA-N,34.2 µM (inactive)
same,GI50,DU-145,> 23.7 µM (inactive)
same,GI50,NCI-H522,10.4 µM (inactive)
same,GI50,NCI-H226,24.9 µM (inactive)
same,GI50,PC-3,> 81.7 µM (inactive)
same,GI50,SK-MEL-28,> 86.1 µM (inactive)
same,GI50,MDA-MB-435,29.7 µM (inactive)
same,GI50,SR,22.9 µM (inactive)
same,GI50,T47D,> 40.9 µM (inactive)
same,GI50,HOP-92,> 78.9 µM (inactive)
same,GI50,A549,8 µM (inactive)
same,GI50,NCI-H460,5 µM (inactive)
same,GI50,RPMI-8226,41.8 µM (inactive)
same,GI50,UO-31,55.7 µM (inactive)
same,GI50,KM12,34.1 µM (inactive)
same,GI50,HT-29,23.1 µM (inactive)
same,GI50,K562,34 µM (inactive)
same,GI50,A498,> 100 µM (inactive)
same,GI50,SNB-75,> 100 µM (inactive)
same,GI50,CAKI-1,27 µM (inactive)
same,GI50,SW-620,12.8 µM (inactive)
same,GI50,NCI-H23,15.9 µM (inactive)
same,GI50,NCI/ADR-RES,23.4 µM (inactive)
same,GI50,786-0,> 76.4 µM (inactive)
same,GI50,EKVX,21.2 µM (inactive)
same,GI50,Malme-3M,> 54 µM (inactive)
same,GI50,HCC 2998,24.7 µM (inactive)
same,GI50,LOX IMVI,28.3 µM (inactive)
Cc1cc(N(CCC#N)CCC#N)ccc1/N=N/c1cccc(Cl)c1,GI50,RXF 393,75 µM (inactive)
same,GI50,DMS-273,9.68 µM (inactive)
same,GI50,UACC-62,70.8 µM (inactive)
same,GI50,UACC-257,> 100 µM (inactive)
same,GI50,SK-MEL-5,> 100 µM (inactive)
same,GI50,SNB-19,51.8 µM (inactive)
same,GI50,OVCAR-3,> 100 µM (inactive)
same,GI50,COLO 205,> 100 µM (inactive)
same,GI50,HCT-116,> 100 µM (inactive)
same,GI50,M19-MEL,> 100 µM (inactive)
same,GI50,OVCAR-5,> 100 µM (inactive)
same,GI50,SF-539,> 100 µM (inactive)
same,GI50,M14,> 100 µM (inactive)
same,GI50,CCRF-CEM,> 100 µM (inactive)
same,GI50,OVCAR-4,> 100 µM (inactive)
same,GI50,SNB-78,> 100 µM (inactive)
same,GI50,SK-OV-3,> 100 µM (inactive)
same,GI50,OVCAR-8,> 100 µM (inactive)
same,GI50,TK-10,> 100 µM (inactive)
same,GI50,HOP-62,86.5 µM (inactive)
same,GI50,U-251,> 100 µM (inactive)
same,GI50,SN12C,> 100 µM (inactive)
same,GI50,SK-MEL-2,> 100 µM (inactive)
same,GI50,ACHN,> 100 µM (inactive)
same,GI50,SF-295,> 100 µM (inactive)
same,GI50,HL-60,3.94 µM (inactive)
same,GI50,NCI-H522,> 100 µM (inactive)
same,GI50,NCI-H226,> 100 µM (inactive)
same,GI50,SK-MEL-28,> 100 µM (inactive)
same,GI50,DMS-114,31.8 µM (inactive)
same,GI50,HOP-92,20.7 µM (inactive)
same,GI50,A549,9.93 µM (inactive)
same,GI50,NCI-H460,5.75 µM (inactive)
same,GI50,RPMI-8226,> 100 µM (inactive)
same,GI50,UO-31,> 100 µM (inactive)
same,GI50,KM12,> 100 µM (inactive)
same,GI50,HT-29,4.08 µM (inactive)
same,GI50,K562,3.42 µM (inactive)
same,GI50,A498,> 100 µM (inactive)
same,GI50,CAKI-1,2.96 µM (inactive)
same,GI50,SW-620,> 100 µM (inactive)
same,GI50,KM-20L2,> 100 µM (inactive)
same,GI50,NCI-H23,80.7 µM (inactive)
same,GI50,786-0,> 100 µM (inactive)
same,GI50,EKVX,> 100 µM (inactive)
same,GI50,Malme-3M,> 100 µM (inactive)
C/C(=N\NC(=O)c1cccnc1)c1cccc(/C(C)=N/NC(=O)c2cccnc2)n1.CC(=O)[O-].CC(=O)[O-].[Zn+2],GI50,RXF 393,3.01 µM (inactive)
same,GI50,SF-268,0.668 µM (active)
same,GI50,UACC-62,2.25 µM (inactive)
same,GI50,UACC-257,5.41 µM (inactive)
same,GI50,SNB-19,2.86 µM (inactive)
same,GI50,HCT-15,2.26 µM
same,GI50,M19-MEL,8.45 µM (inactive)
same,GI50,OVCAR-5,4.13 µM (inactive)
same,GI50,SF-539,1.57 µM (inactive)
same,GI50,M14,4.46 µM (inactive)
same,GI50,OVCAR-4,0.504 µM (active)
same,GI50,SK-OV-3,2.22 µM (inactive)
same,GI50,OVCAR-8,1.62 µM (inactive)
same,GI50,TK-10,5.65 µM (inactive)
same,GI50,HOP-62,1.45 µM (inactive)
same,GI50,U-251,1.03 µM (active)
same,GI50,SN12C,4.9 µM (inactive)
same,GI50,ACHN,1.52 µM (inactive)
same,GI50,SF-295,2.74 µM (inactive)
same,GI50,NCI-H226,2.31 µM (inactive)
same,GI50,A549,3.91 µM (inactive)
same,GI50,NCI-H460,4.31 µM (inactive)
same,GI50,RPMI-8226,6.21 µM (inactive)
same,GI50,UO-31,2.72 µM (inactive)
same,GI50,KM12,3.3 µM (inactive)
same,GI50,DLD-1,1.68 µM (inactive)
same,GI50,CAKI-1,2.64 µM (inactive)
same,GI50,SW-620,3.54 µM (inactive)
same,GI50,KM-20L2,1.67 µM (inactive)
same,GI50,NCI-H23,4.01 µM (inactive)
same,GI50,786-0,4.43 µM (inactive)
same,GI50,EKVX,2.86 µM (inactive)
same,GI50,LOX IMVI,1.62 µM (inactive)
